In the Biogen ADME set (Fang et al. 2023):
≈ marks a conversion by molar mass, not a printed value.

Settings: for aqueous solubility: pH 6.8

Structure (SMILES) | MDR1-MDCK efflux ratio | intrinsic clearance, human liver microsomes | intrinsic clearance, rat liver microsomes | aqueous solubility | fraction unbound, human plasma | fraction unbound, rat plasma
CC(C)c1nnc(CNc2ncc(Br)cn2)n1C | 4.39 | ≤ 4.74 mL/min/kg | ≤ 10.7 mL/min/kg | – | – | –
O=C(Nc1ccn(-c2ncccc2Cl)n1)c1csnn1 | – | – | – | 28.5 µg/mL (≈ 92.9 µM) | – | –
Cc1c[nH]c(=O)n1-c1ccc(C(=O)Nc2ccc3ccccc3n2)cc1 | 10.2 | 8.88 mL/min/kg | 49.4 mL/min/kg | 5.9 µg/mL (≈ 17.1 µM) | 0.0436 | –
CC(C)C(=O)Nc1ncc(-c2ccccc2)s1 | 0.393 | – | – | 0.55 µg/mL (≈ 2.23 µM) | – | –
C[C@H](Cc1cc2c(c(C(N)=O)c1)N(CCCO)CC2)NCCOc1ccccc1OCC(F)(F)F | 27.4 | 59 mL/min/kg | 313 mL/min/kg | – | – | –
Cc1cccc(C)c1OCCn1nnnc1C | 0.657 | ≤ 4.74 mL/min/kg | 97.1 mL/min/kg | – | – | –
CCCCc1c(C)[nH]c2nc(N(Cc3cccs3)C(C)=O)nn2c1=O | 26 | 13.7 mL/min/kg | 81 mL/min/kg | 39 µg/mL (≈ 108 µM) | – | –
CC(=O)N1c2ccc(S(=O)(=O)Nc3cccc(-c4cnco4)c3)cc2CC1C (centres undefined) | 11.5 | 67.6 mL/min/kg | 274 mL/min/kg | – | – | –
CC(C)c1nc(NCc2cccnc2)n(C)n1 | 3.72 | ≤ 4.74 mL/min/kg | ≤ 10.7 mL/min/kg | 38.2 µg/mL (≈ 165 µM) | – | –
c1ccn2cc(CSc3ccc(-n4cccn4)nn3)nc2c1 | 0.732 | 18.6 mL/min/kg | 630 mL/min/kg | – | – | –
COc1cc2c(cc1NC(C)=O)oc1ccccc12 | 0.379 | 117 mL/min/kg | 63.7 mL/min/kg | 34.4 µg/mL (≈ 135 µM) | – | –
Cc1cnccc1-c1cnc(N(C)C)nc1-c1ccco1 | 0.636 | 140 mL/min/kg | 2250 mL/min/kg | – | – | –
c1ccc(-n2cc(CNc3ncccn3)cn2)cc1 | 0.497 | 30.8 mL/min/kg | 181 mL/min/kg | 41.1 µg/mL (≈ 164 µM) | – | –
Cc1cc(C)c2c(N(C)CCC(C)C)ncnc2n1 | 0.862 | 14.3 mL/min/kg | 1220 mL/min/kg | 37.5 µg/mL (≈ 145 µM) | – | –
Cc1c(Nc2ccc3nccnc3n2)cnn1C | – | – | – | 31.7 µg/mL (≈ 132 µM) | – | –
Cc1cc(NC(=O)c2cccs2)no1 | 0.617 | 39.6 mL/min/kg | 793 mL/min/kg | 31.6 µg/mL (≈ 152 µM) | – | –
O=C(Nc1nncs1)c1cccnc1 | 1.04 | ≤ 4.74 mL/min/kg | ≤ 10.7 mL/min/kg | 44.3 µg/mL (≈ 215 µM) | – | –
O=C(/C=C\n1cnc(-c2cc(C(F)(F)F)cc(C(F)(F)F)c2)n1)NNc1cnccn1 | 1.96 | 4.77 mL/min/kg | 14.3 mL/min/kg | 12.5 µg/mL (≈ 28.1 µM) | – | –
CC1(C)CN(C(=O)c2cncc(Br)c2)CCO1 | 0.783 | ≤ 4.74 mL/min/kg | ≤ 10.7 mL/min/kg | 83.3 µg/mL (≈ 278 µM) | – | –
COC(=O)N1CC(NCc2c(C)nn(C(C)(C)C)c2C)C1 | 1.79 | ≤ 4.74 mL/min/kg | 61.2 mL/min/kg | – | – | –
Cc1cnc(NCc2ccccc2-n2ccnc2)nc1N(C)C | 11.3 | 33.7 mL/min/kg | 486 mL/min/kg | 52.2 µg/mL (≈ 169 µM) | – | –
Cc1oc2ncnc(NCc3cc(F)cc4c3OCOC4)c2c1C | 0.553 | 127 mL/min/kg | 2040 mL/min/kg | – | – | –
Cn1ncc2c(Oc3cccc(C(C)(C)C)c3)ncnc21 | 0.48 | 36.7 mL/min/kg | 465 mL/min/kg | 3.9 µg/mL (≈ 13.8 µM) | – | –
CS(=O)(=O)Nc1ccccc1-c1ccncc1 | 1.27 | ≤ 4.74 mL/min/kg | 100 mL/min/kg | – | – | –

The remaining lines, values ahead:

MDR1-MDCK efflux ratio | intrinsic clearance, human liver microsomes | intrinsic clearance, rat liver microsomes | aqueous solubility | fraction unbound, human plasma | fraction unbound, rat plasma | Structure (SMILES)
– | ≤ 4.74 mL/min/kg | ≤ 10.7 mL/min/kg | – | – | – | N=C(N)NCCCCC(=O)Nc1ccc(C[C@H](NC(=O)[C@@H]2CCCN2S(=O)(=O)c2ccccc2)C(=O)O)cc1
0.535 | 228 mL/min/kg | 3380 mL/min/kg | 40.8 µg/mL (≈ 123 µM) | – | – | Cc1ccc(-c2noc(CCC(=O)N3CCCC3(C)C)n2)cc1F
16 | ≤ 4.74 mL/min/kg | ≤ 10.7 mL/min/kg | 43.4 µg/mL (≈ 148 µM) | – | – | c1ccc2c(N3CCn4c(nnc4C4CC4)C3)ncnc2c1
0.975 | ≤ 4.74 mL/min/kg | ≤ 10.7 mL/min/kg | – | – | – | Cc1nc(NCc2ccc(F)cc2)n(C)n1
2.42 | ≤ 4.74 mL/min/kg | ≤ 10.7 mL/min/kg | 51 µg/mL (≈ 206 µM) | – | – | CC(=O)Nc1cc(CCC2CCNCC2)ccn1
5.53 | 796 mL/min/kg | 2110 mL/min/kg | 50.7 µg/mL (≈ 139 µM) | – | – | CN1C(=O)N(CC(=O)NCc2ccc(Cl)cc2)C(=O)C12CCCCC2
0.983 | 134 mL/min/kg | 496 mL/min/kg | 6.85 µg/mL (≈ 16.3 µM) | – | – | O=C(CN1CCCC(c2nc3ccccc3o2)C1)Nc1ccc(OC(F)(F)F)cc1 (centres undefined)
4.41 | ≤ 4.74 mL/min/kg | 95.2 mL/min/kg | – | – | – | CN(CCN1CCCCC1)c1cncc(C(N)=O)n1
123 | 28.7 mL/min/kg | 535 mL/min/kg | – | 0.00121 | 0.00114 | COc1ccc(Cl)cc1C(=O)NCCc1ccc(S(=O)(=O)NC(=O)NC2CCCCC2)cc1
0.554 | ≤ 4.74 mL/min/kg | 30.3 mL/min/kg | – | – | – | N#Cc1cccc(CNCc2ccccn2)c1
0.583 | 19.2 mL/min/kg | 893 mL/min/kg | 54 µg/mL (≈ 183 µM) | – | – | COCCS(=O)(=O)N1CCC2(Cc3ccccc3C2)C1
– | 8.94 mL/min/kg | 226 mL/min/kg | 34 µg/mL (≈ 95.4 µM) | – | – | Cn1cc(-c2nc(C(=O)Nc3ccc4c(c3)OCCCO4)cs2)cn1
47.2 | 15 mL/min/kg | 142 mL/min/kg | 32.2 µg/mL (≈ 87.5 µM) | – | – | CCc1nnsc1C(=O)Nc1cccc(-c2nnc3n2CCCCC3)c1
0.742 | 657 mL/min/kg | 4170 mL/min/kg | 29.7 µg/mL (≈ 82.8 µM) | – | – | Cc1nc2c(c(N(C)Cc3ccccc3)n1)CCN(Cc1ccccc1)C2
2.83 | ≤ 4.74 mL/min/kg | 112 mL/min/kg | – | – | – | CCn1nc(CNC(=O)C2CCOCC2)c2ccccc21
– | – | – | 8.7 µg/mL (≈ 32.7 µM) | – | – | COc1cc(C#N)ccc1Oc1nc2ccccc2o1

MDR1-MDCK efflux ratio | intrinsic clearance, human liver microsomes | intrinsic clearance, rat liver microsomes | aqueous solubility | fraction unbound, human plasma | fraction unbound, rat plasma | Structure (SMILES)
51.8 | 7.58 mL/min/kg | 35.6 mL/min/kg | 73.2 µg/mL (≈ 135 µM) | – | – | C[C@@H](c1ccc2ccc(O[C@H]3CC[C@@H](C(F)(F)F)CC3)c(C(F)(F)F)c2c1)N1C2CCC1CC(C(=O)O)C2 (some centres undefined)
0.675 | 39.5 mL/min/kg | 1530 mL/min/kg | 9.5 µg/mL (≈ 34 µM) | 0.00243 | – | c1ccc(-c2ccc(CN3CCCCCCC3)cc2)cc1
91.5 | 162 mL/min/kg | 250 mL/min/kg | 53.4 µg/mL (≈ 95.9 µM) | – | – | COc1cc(C(C)C)c2c(c1)S(=O)(=O)N(COc1cc(=O)n3cccc(OCCN4CCCCC4)c3n1)C2=O
3.06 | 21.7 mL/min/kg | 619 mL/min/kg | 4.13 µg/mL (≈ 11.8 µM) | – | – | O=C1CC2(CCN(C(=O)NCc3ccccc3)CC2)Oc2ccccc21
13 | 37.9 mL/min/kg | 545 mL/min/kg | – | 0.167 | 0.123 | O=C(Nc1cccc2ncccc12)[C@H]1CCCN(S(=O)(=O)c2ccccc2)C1
2.35 | ≤ 4.74 mL/min/kg | ≤ 10.7 mL/min/kg | 43.9 µg/mL (≈ 129 µM) | – | – | CN(C)C(=O)CN1CCN(C(=O)c2ccc3ccccc3c2O)CC1
42.1 | ≤ 4.74 mL/min/kg | 39.4 mL/min/kg | 61.8 µg/mL (≈ 141 µM) | – | – | COc1ccc(-c2nc(C3CCN(C(=O)c4sc(C)nc4C)CC3)[nH]c2C(N)=O)cc1
– | – | – | 26 µg/mL (≈ 95.1 µM) | – | – | COc1cc(CC(=O)Nc2ccccc2F)ccc1C
0.547 | 122 mL/min/kg | 2520 mL/min/kg | 6.12 µg/mL (≈ 21.4 µM) | – | – | Cc1ccc2c(CC(=O)NCc3cccs3)coc2c1
2.41 | 52 mL/min/kg | 771 mL/min/kg | 24.1 µg/mL (≈ 74.5 µM) | – | – | C/C=C/CC(=O)N1CCC(c2cc(Cc3ccccc3)n[nH]2)CC1
10.2 | 18.7 mL/min/kg | ≤ 10.7 mL/min/kg | – | – | – | COc1cc2nn(CCC(C)(C)O)cc2cc1NC(=O)c1ccn(C(F)F)n1
0.985 | 5.81 mL/min/kg | 67.4 mL/min/kg | 25.1 µg/mL (≈ 84.3 µM) | – | – | N#Cc1ccc(-c2csc(CCN3CCCC3=O)n2)cc1
– | 13.6 mL/min/kg | 186 mL/min/kg | – | – | – | Cn1c(=O)oc2cc(NC(C3CC3)C3CC3)ccc21
19.1 | ≤ 4.74 mL/min/kg | 65.9 mL/min/kg | 59 µg/mL (≈ 179 µM) | – | – | O=C1CCCN1CCc1nc(-c2ccc3[nH]c(=O)oc3c2)cs1
20.6 | ≤ 4.74 mL/min/kg | 23.9 mL/min/kg | 57.5 µg/mL (≈ 132 µM) | – | – | CNC(=O)c1cn(C)nc1CC1CCN(Cc2cnc(-c3ccc(OC)cc3)nc2)CC1
– | 65.5 mL/min/kg | 267 mL/min/kg | 37.8 µg/mL (≈ 149 µM) | – | – | N#CCN1CCCN(Cc2ccc(C#N)cc2)CC1
